Here are results for 18 molecules from ChEMBL document CHEMBL4406857, “Discovery of new small molecule inhibitors targeting isocitrate dehydrogenase 1 (IDH1) with blood-brain barrier penetration” (Eur J Med Chem, 2019).

In assay [1] the target is Isocitrate dehydrogenase [NADP] cytoplasmic (Homo sapiens, UniProt O75874, R132H). In words: Inhibition of recombinant human C-terminal His8-tagged IDH1 R132H mutant expressed in Escherichia coli BL21 assessed as reduction in NADPH consumption using alpha-ketoglutarate as substrate preincubated for 60 mins followed by substrate addition measured for 60 mins in presence of NADPH by diaphorase/resazurin-based assay. (The colour change of resazurin is a common sign of viable cells or microbes.)

For assay [2], the target named is Isocitrate dehydrogenase [NADP] cytoplasmic (Homo sapiens, UniProt O75874, R132C). In words: Inhibition of recombinant human C-terminal His8-tagged IDH1 R132C mutant expressed in Escherichia coli BL21 assessed as reduction in NADPH consumption using alpha-ketoglutarate as substrate preincubated for 60 mins followed by substrate addition and measured for 60 mins in presence of NADPH by diaphorase/resazurin-based fluorescence assay.

pIC50: −log10 of the molar value.

Isocitrate dehydrogenase [NADP] cytoplasmic (Homo sapiens, UniProt O75874, R132H), sequence (O75874 2-414 R132H limits assumed): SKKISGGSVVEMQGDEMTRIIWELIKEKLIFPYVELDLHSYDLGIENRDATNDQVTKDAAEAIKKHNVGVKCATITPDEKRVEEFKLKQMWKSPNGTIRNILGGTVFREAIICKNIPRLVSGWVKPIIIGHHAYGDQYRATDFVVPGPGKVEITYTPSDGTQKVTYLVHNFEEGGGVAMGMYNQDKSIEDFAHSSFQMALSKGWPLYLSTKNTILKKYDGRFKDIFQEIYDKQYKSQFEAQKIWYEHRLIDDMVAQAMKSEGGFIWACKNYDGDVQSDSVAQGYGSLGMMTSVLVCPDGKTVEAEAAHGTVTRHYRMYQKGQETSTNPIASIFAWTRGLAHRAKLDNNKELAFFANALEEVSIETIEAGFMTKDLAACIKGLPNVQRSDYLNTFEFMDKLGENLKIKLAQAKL
Isocitrate dehydrogenase [NADP] cytoplasmic (Homo sapiens, UniProt O75874, R132C), sequence (O75874 2-414 R132C limits assumed): as the sequence (O75874 2-414 R132H limits assumed) above, with H131C counted along it

Regarding `C[C@H](Nc1nc(Cl)cc(N2C(=O)OC[C@@H]2[C@H](C)F)n1)c1ncn2c1CCc1cc(C(F)(F)F)ccc1-2`, the pIC50 (commonly the negative decadic logarithm of the IC50, by convention in mol/L) in assay [1] is 8.67; in assay [2] it was 7.63.

For `C[C@H](Nc1nccc(N2C(=O)OC[C@@H]2[C@H](C)F)n1)c1ncn2c1CCc1ccc(C(F)(F)F)cc1-2`, the negative-log IC50 (pIC50) in assay [1] was 7.74; in assay [2], 8.10.

In the case of `C[C@H](Nc1nccc(N2C(=O)OC[C@@H]2[C@H](C)F)n1)c1ncn2c1COc1cc(C#N)ccc1-2`, the pIC50 in assay [1] was 6.32; in assay [2], 6.40.

As to `C[C@H](Nc1nccc(N2C(=O)OC[C@@H]2[C@H](C)F)n1)c1ncn2c1CCc1cc(F)ccc1-2`, the negative logarithm of the IC50 (pIC50) was 7.32 in assay [1] and 7.35 in assay [2].

Take `C[C@H](Nc1nccc(N2C(=O)OC3(COC3)[C@@H]2c2ccccc2)n1)c1ncn2c1CCc1cc(C(F)(F)F)ccc1-2`: the pIC50 in assay [1] was 7.47; in assay [2], 8.01.

As to `C[C@H](Nc1nccc(N2C(=O)OC[C@@H]2[C@H](C)F)n1)c1ncn2c1COc1cc(C3CC3)ccc1-2`, the negative logarithm of the IC50 (pIC50) in assay [1] is 7.48; in assay [2], 7.61.

For the molecule `CC(C)[C@@H]1N(c2ccnc(N[C@@H](C)c3ncn4c3CCc3cc(C(F)(F)F)ccc3-4)n2)C(=O)OC1(C)C`, the negative-log IC50 (pIC50) in assay [1] is 7.29; in assay [2] it was 7.73.

Consider `C[C@H](Nc1nccc(N2C(=O)OC[C@@H]2[C@H](C)F)n1)c1ncn2c1CCc1c(Cl)cccc1-2`, for which the negative-log IC50 (pIC50) in assay [1] is 7.62; in assay [2] it was 7.09.

Consider `C[C@H](Nc1nccc(N2C(=O)OC[C@@H]2[C@H](C)F)n1)c1ncn2c1CSc1cc(C(F)(F)F)ccc1-2`, for which the pIC50 in assay [1] and in assay [2] was 7.62 each time.

On to `C[C@H](Nc1nccc(N2C(=O)OC[C@@H]2[C@H](C)F)n1)c1ncn2c1sc1cc(C(F)(F)F)ccc12`, for which the figures for the negative-log IC50 (pIC50) in assay [1] and in assay [2] were 7.72 and 7.76, respectively.

As to `CC1Cc2cc(C(F)(F)F)ccc2-n2cnc([C@H](C)Nc3nccc(N4C(=O)OC[C@@H]4[C@H](C)F)n3)c21` (stereo partly specified), the pIC50 in assay [1] and in assay [2] was 6.92 each time.

`CC1Cc2c([C@H](C)Nc3nccc(N4C(=O)OC[C@@H]4[C@H](C)F)n3)ncn2-c2ccc(C(F)(F)F)cc21` (stereo partly specified): the pIC50 is 6.89 in assay [1] and 7.03 in assay [2].

On to `C[C@H](Nc1nccc(N2C(=O)OC[C@@H]2[C@H](C)F)n1)c1ncn2c1CCCc1cc(C(F)(F)F)ccc1-2`, for which the negative-log IC50 (pIC50) is 7.35 in assay [1] and 7.36 in assay [2].

For `C[C@H](Nc1nccc(N2CC3(CC3)OC2=O)n1)c1ncn2c1CCc1cc(C(F)(F)F)ccc1-2`, the pIC50 in assay [1] was less than 5.00; in assay [2], 5.23.

With `Cc1ccc2c(c1)CCc1c([C@H](C)Nc3nccc(N4C(=O)OC[C@@H]4[C@H](C)F)n3)ncn1-2`, the pIC50 was 7.37 in assay [1] and 7.79 in assay [2].

Consider `C[C@H](Nc1nccc(N2C(=O)OC[C@@H]2c2ccccc2)n1)c1ncn2c1CCc1cc(C(F)(F)F)ccc1-2`, for which the negative logarithm of the IC50 (pIC50) in assay [1] was 7.81; in assay [2], 7.85.

Consider `CC(C)[C@H]1C(C)OC(=O)N1c1ccnc(N[C@@H](C)c2ncn3c2CCc2cc(C(F)(F)F)ccc2-3)n1` (stereo partly specified), for which the pIC50 was 7.38 in assay [1] and 7.82 in assay [2].

`COc1ccc2c(c1)OCc1c([C@H](C)Nc3nccc(N4C(=O)OC[C@@H]4[C@H](C)F)n3)ncn1-2`: the negative logarithm of the IC50 (pIC50) in assay [1] was 7.21; in assay [2] it was 6.81.
